{
  "source": "patent US9809583B2",
  "about": "(priority 2014, dated 2017)",
  "note": "Counter-ions that a name gives are not always drawn.",
  "data": [
    {"target": "androgen receptor (hAR) (Homo sapiens (Human), UniProt P10275)", "sequence (P10275 whole entry)": "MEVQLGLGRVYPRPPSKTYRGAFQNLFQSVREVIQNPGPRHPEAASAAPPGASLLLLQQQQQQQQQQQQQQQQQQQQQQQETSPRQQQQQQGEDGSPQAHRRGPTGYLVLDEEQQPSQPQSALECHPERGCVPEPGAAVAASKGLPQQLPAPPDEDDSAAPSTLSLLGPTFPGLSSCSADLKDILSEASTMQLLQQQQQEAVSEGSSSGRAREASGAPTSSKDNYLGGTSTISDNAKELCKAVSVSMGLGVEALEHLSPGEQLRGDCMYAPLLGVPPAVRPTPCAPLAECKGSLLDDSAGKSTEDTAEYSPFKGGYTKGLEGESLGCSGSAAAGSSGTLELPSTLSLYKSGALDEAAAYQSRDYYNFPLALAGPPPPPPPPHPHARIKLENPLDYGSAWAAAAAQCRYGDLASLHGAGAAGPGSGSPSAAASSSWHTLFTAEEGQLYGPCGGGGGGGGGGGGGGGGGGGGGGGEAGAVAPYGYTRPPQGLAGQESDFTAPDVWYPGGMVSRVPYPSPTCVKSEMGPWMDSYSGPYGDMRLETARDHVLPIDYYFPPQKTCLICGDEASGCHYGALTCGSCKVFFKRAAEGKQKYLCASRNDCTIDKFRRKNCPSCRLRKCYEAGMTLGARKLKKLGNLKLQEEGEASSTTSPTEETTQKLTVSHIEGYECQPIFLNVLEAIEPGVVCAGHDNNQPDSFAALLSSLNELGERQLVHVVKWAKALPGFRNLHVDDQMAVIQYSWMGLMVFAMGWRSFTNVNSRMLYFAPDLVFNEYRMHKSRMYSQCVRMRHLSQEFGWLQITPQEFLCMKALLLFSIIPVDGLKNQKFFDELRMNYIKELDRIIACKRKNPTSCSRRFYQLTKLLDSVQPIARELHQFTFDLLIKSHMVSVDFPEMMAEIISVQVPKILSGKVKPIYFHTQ", "assay": "Test of transcriptional activity (hAR / ARE-Luc dual-luciferase assay in CHO cells)", "assay_type": "cell-based", "details": "CHO cells with hAR and ARE-Luc, 24 hours; 10 nM DHT = 100%; read-out: EC50 [nM] (mean ± SE)", "method": "(§1) In order to examine the transcriptional activity of the agonists of the present invention, the following in-vitro experiment was performed. CHO (Chinese hamster ovary) cell line (ATCC, #CCL-61) was seeded in a 96-well plate at a density of 1.5×10^4 cells/well, and cultured for 24 hours. Then, a plasmid hAR and plasmid ARE-Luc-mixed medium was added thereto. The transfected cell line was treated with 0.1˜10,000 nM of SARM derivatives, and then allowed to react for 24 hours.", "units": {"EC50": "nM"}, "values": [
      {"compound": "COC(=O)N1CCN(C(=O)[C@@H]2CN(c3ccc([N+](=O)[O-])c(C)c3)[C@@H](C(F)(F)F)O2)CC1", "note": "[Example 179, methyl 4-((2R,5S)-3-(3-methyl-4-nitrophenyl)-2-(trifluoromethyl)oxazolidine-5-carbonyl)piperazine-1-carboxylate]", "EC50": 42},
      {"compound": "(2R,5S)-3-(3-chloro-4-cyanophenyl)-N-(4-cyano-2-fluorophenyl)-2-(trifluoromethyl)oxazolidine-5-carboxamide [Example 119]", "EC50": 227},
      {"compound": "(2R,5S)-3-(3-chloro-4-cyanophenyl)-N-(4-cyanophenyl)-2-(trifluoromethyl)oxazolidine-5-carboxamide [Example 117]", "EC50": 2},
      {"compound": "(2R,5S)-3-(3-chloro-4-cyanophenyl)-N-(6-cyanopyridin-3-yl)-2-(trifluoromethyl)oxazolidine-5-carboxamide [Example 120]", "EC50": 11.1},
      {"compound": "(2R,5S)-3-(3-chloro-4-cyanophenyl)-N-(pyridin-4-yl)-2-(trifluoromethyl)oxazolidine-5-carboxamide [Example 121]", "EC50": 616}
    ]},
    {"target": "androgen receptor (hAR) (Homo sapiens (Human), UniProt P10275)", "assay": "Test of transcriptional activity (hAR / ARE-Luc dual-luciferase assay in CHO cells)", "assay_type": "cell-based", "details": "EC50 [nM] (mean ± SE), CHO cells with hAR and ARE-Luc, 24 hours; 10 nM DHT = 100%", "method": "as §1", "units": {"EC50": "nM"}, "values": [
      {"compound": "N#Cc1ccc(NC(=O)[C@@H]2CN(c3ccc(C#N)c(C(F)(F)F)c3)[C@@H](C(F)(F)F)O2)c(F)c1", "note": "[Example 139, (2R,5S)-N-(4-cyano-2-fluorophenyl)-3-(4-cyano-3-(trifluoromethyl)phenyl)-2-(trifluoromethyl)oxazolidine-5-carboxamide]", "EC50": 2.74},
      {"compound": "N#Cc1ccc(N2C[C@@H](C(=O)Nc3ccc(F)c(F)c3)O[C@@H]2C(F)(F)F)cc1C(F)(F)F", "note": "[Example 140, (2R,5S)-3-(4-cyano-3-(trifluoromethyl)phenyl)-N-(3,4-difluorophenyl)-2-(trifluoromethyl)oxazolidine-5-carboxamide]", "EC50": 14.7},
      {"compound": "N#Cc1cccc(NC(=O)[C@@H]2CN(c3ccc(C#N)c(C(F)(F)F)c3)[C@@H](C(F)(F)F)O2)c1", "note": "[Example 141, (2R,5S)-3-(4-cyano-3-(trifluoromethyl)phenyl)-N-(3-cyanophenyl)-2-(trifluoromethyl)oxazolidine-5-carboxamide]", "EC50": 44.2},
      {"compound": "N#Cc1ccc(N2C[C@@H](C(=O)Nc3ccnc(Cl)c3)O[C@@H]2C(F)(F)F)cc1C(F)(F)F", "note": "[Example 142, (2R,5S)-N-(2-chloropyridin-4-yl)-3-(4-cyano-3-(trifluoromethyl)phenyl)-2-(trifluoromethyl)oxazolidine-5-carboxamide]", "EC50": 0.79},
      {"compound": "N#Cc1ccc(NC(=O)[C@@H]2CN(c3ccc(C#N)c(C(F)(F)F)c3)[C@@H](C(F)(F)F)O2)cc1C(F)(F)F", "note": "[Example 144, (2R,5S)-N,3-bis(4-cyano-3-(trifluoromethyl)phenyl)-2-(trifluoromethyl)oxazolidine-5-carboxamide]", "EC50": 11.1},
      {"compound": "CCc1cc(C#N)ccc1NC(=O)[C@@H]1CN(c2ccc(C#N)c(C(F)(F)F)c2)[C@@H](C(F)(F)F)O1", "note": "[Example 145, (2R,5S)-N-(4-cyano-2-ethylphenyl)-3-(4-cyano-3-(trifluoromethyl)phenyl)-2-(trifluoromethyl)oxazolidine-5-carboxamide]", "EC50": 305},
      {"compound": "N#Cc1ccc(NC(=O)[C@@H]2CN(c3ccc(C#N)c(C(F)(F)F)c3)[C@@H](C(F)(F)F)O2)cc1F", "note": "[Example 147, (2R,5S)-3-(4-cyano-3-(trifluoromethyl)phenyl)-N-(4-cyano-3-fluorophenyl)-2-(trifluoromethyl)oxazolidine-5-carboxamide]", "EC50": 768},
      {"compound": "N#Cc1ccc(N2C[C@@H](C(=O)Nc3ccc(O)cc3)O[C@@H]2C(F)(F)F)cc1C(F)(F)F", "note": "[Example 148, (2R,5S)-3-(4-cyano-3-(trifluoromethyl)phenyl)-N-(4-hydroxyphenyl)-2-(trifluoromethyl)oxazolidine-5-carboxamide]", "EC50": 13.5},
      {"compound": "N#Cc1ccc(N2C[C@@H](C(=O)Nc3ccc([N+](=O)[O-])cc3Cl)O[C@@H]2C(F)(F)F)cc1C(F)(F)F", "note": "[Example 151, (2R,5S)-N-(2-chloro-4-nitrophenyl)-3-(4-cyano-3-(trifluoromethyl)phenyl)-2-(trifluoromethyl)oxazolidine-5-carboxamide]", "EC50": 43.7},
      {"compound": "N#Cc1ccc(N2C[C@@H](C(=O)Nc3ccc(N)cc3Cl)O[C@@H]2C(F)(F)F)cc1C(F)(F)F", "note": "[Example 152, (2R,5S)-N-(4-amino-2-chlorophenyl)-3-(4-cyano-3-(trifluoromethyl)phenyl)-2-(trifluoromethyl)oxazolidine-5-carboxamide]", "EC50": 521},
      {"compound": "COC(=O)Nc1ccc(NC(=O)[C@@H]2CN(c3ccc(C#N)c(C(F)(F)F)c3)[C@@H](C(F)(F)F)O2)c(Cl)c1", "note": "[Example 154, methyl(3-chloro-4-((2R,5S)-3-(4-cyano-3-(trifluoromethyl)phenyl)-2-(trifluoromethyl)oxazolidine-5-carboxamido)phenyl)carbamate]", "EC50": 27.8},
      {"compound": "N#Cc1ccc(N2C[C@@H](C(=O)Nc3ccc([N+](=O)[O-])cc3)O[C@@H]2C(F)(F)F)cc1C(F)(F)F", "note": "[Example 155, (2R,5S)-3-(4-cyano-3-(trifluoromethyl)phenyl)-N-(4-nitrophenyl)-2-(trifluoromethyl)oxazolidine-5-carboxamide]", "EC50": 823},
      {"compound": "N#Cc1ccc(N2C[C@@H](C(=O)Nc3ccc(N)cc3)O[C@@H]2C(F)(F)F)cc1C(F)(F)F", "note": "[Example 156, (2R,5S)-N-(4-aminophenyl)-3-(4-cyano-3-(trifluoromethyl)phenyl)-2-(trifluoromethyl)oxazolidine-5-carboxamide]", "EC50": 323},
      {"compound": "COC(=O)Nc1ccc(NC(=O)[C@@H]2CN(c3ccc(C#N)c(C(F)(F)F)c3)[C@@H](C(F)(F)F)O2)cc1", "note": "[Example 157, methyl(4-((2R,5S)-3-(4-cyano-3-(trifluoromethyl)phenyl)-2-(trifluoromethyl)oxazolidine-5-carboxamido)phenyl)carbamate]", "EC50": 231},
      {"compound": "CCC(=O)Nc1ccc(NC(=O)[C@@H]2CN(c3ccc(C#N)c(C(F)(F)F)c3)[C@@H](C(F)(F)F)O2)cc1", "note": "[Example 158, (2R,5S)-3-(4-cyano-3-(trifluoromethyl)phenyl)-N-(4-propionamidophenyl)-2-(trifluoromethyl)oxazolidine-5-carboxamide]", "EC50": 12.5},
      {"compound": "CC(C)C(=O)Nc1ccc(NC(=O)[C@@H]2CN(c3ccc(C#N)c(C(F)(F)F)c3)[C@@H](C(F)(F)F)O2)cc1", "note": "[Example 159, (2R,5S)-3-(4-cyano-3-(trifluoromethyl)phenyl)-N-(4-isobutylamidophenyl)-2-(trifluoromethyl)oxazolidine-5-carboxamide]", "EC50": 288},
      {"compound": "N#Cc1ccc(N2C[C@@H](C(=O)Nc3ccc(NC(=O)CO)cc3)O[C@@H]2C(F)(F)F)cc1C(F)(F)F", "note": "[Example 160, (2R,5S)-3-(4-cyano-3-(trifluoromethyl)phenyl)-N-(4-(2-hydroxyacetamido)phenyl)-2-(trifluoromethyl)oxazolidine-5-carboxamide]", "EC50": 105},
      {"compound": "N#Cc1ccc(N2C[C@@H](C(=O)Nc3ccc(NC(N)=O)cc3)O[C@@H]2C(F)(F)F)cc1C(F)(F)F", "note": "[Example 161, (2R,5S)-3-(4-cyano-3-(trifluoromethyl)phenyl)-2-(trifluoromethyl)-N-(4-ureidophenyl)oxazolidine-5-carboxamide]", "EC50": 240},
      {"compound": "N#CCC(=O)Nc1ccc(NC(=O)[C@@H]2CN(c3ccc(C#N)c(C(F)(F)F)c3)[C@@H](C(F)(F)F)O2)cc1", "note": "[Example 162, (2R,5S)-3-(4-cyano-3-(trifluoromethyl)phenyl)-N-(4-(2-cyanoacetamido)phenyl)-2-(trifluoromethyl)oxazolidine-5-carboxamide]", "EC50": 149},
      {"compound": "N#Cc1ccc(N2C[C@@H](C(=O)Nc3ccc(NC(=O)CN)cc3)O[C@@H]2C(F)(F)F)cc1C(F)(F)F", "note": "[Example 163, (2R,5S)-N-(4-(2-aminoacetamido)phenyl)-3-(4-cyano-3-(trifluoromethyl)phenyl)-2-(trifluoromethyl)oxazolidine-5-carboxamide hydrochloride]", "EC50": 214},
      {"compound": "N#Cc1ccc(N2C[C@@H](C(=O)N3CCC(C#N)CC3)O[C@@H]2C(F)(F)F)cc1C(F)(F)F", "note": "[Example 167]", "EC50": 44},
      {"compound": "CC(=O)N1CCC(NC(=O)[C@@H]2CN(c3ccc(C#N)c(C(F)(F)F)c3)[C@@H](C(F)(F)F)O2)CC1", "note": "[Example 170, (2R,5S)-N-(1-acetylpiperidin-4-yl)-3-(4-cyano-3-(trifluoromethyl)phenyl)-2-(trifluoromethyl)oxazolidine-5-carboxamide]", "EC50": 3560},
      {"compound": "CC(=O)N1CCN(C(=O)[C@@H]2CN(c3ccc(C#N)c(C(F)(F)F)c3)[C@@H](C(F)(F)F)O2)CC1", "note": "[Example 172, 4-((2R,5S)-5-(4-acetylpiperazine-1-carbonyl)-2-(trifluoromethyl)oxazolidin-3-yl)-2-(trifluoromethyl)benzonitrile]", "EC50": 699},
      {"compound": "N#Cc1ccc(N2C[C@@H](C(=O)N3CCN(C#N)CC3)O[C@@H]2C(F)(F)F)cc1C(F)(F)F", "note": "[Example 174, 4-((2R,5S)-3-(4-cyano-3-(trifluoromethyl)phenyl)-2-(trifluoromethyl)oxazolidine-5-carbonyl)piperazine-1-carbonitrile]", "EC50": 139},
      {"compound": "N#Cc1ccc(N2C[C@@H](C(=O)N3CCC(N)CC3)O[C@@H]2C(F)(F)F)cc1C(F)(F)F", "note": "[Example 175, 4-((2R,5S)-5-(4-aminopiperidine-1-carbonyl)-2-(trifluoromethyl)oxazolidin-3-yl)-2-(trifluoromethyl)benzonitrile hydrochloride]", "EC50": 85.2},
      {"compound": "CC(=O)NC1CCN(C(=O)[C@@H]2CN(c3ccc(C#N)c(C(F)(F)F)c3)[C@@H](C(F)(F)F)O2)CC1", "note": "[Example 176]", "EC50": 198},
      {"compound": "COC(=O)N1CCN(C(=O)[C@@H]2CN(c3ccc(C#N)c(Cl)c3)[C@@H](C(F)(F)F)O2)CC1", "note": "[Example 178, methyl 4-((2R,5S)-3-(3-chloro-4-cyanophenyl)-2-(trifluoromethyl)oxazolidine-5-carbonyl)piperazine-1-carboxylate]", "EC50": 21.2}
    ]}
  ]
}
